According to patent US20080004200A1, “Enzyme stabilization” (priority 2006, published 2008):
Where a SMILES comes first, the peptide text is derived from it. The star is where a group is joined. Moc = COC(=O)*

Tested on: Gram negative bacteria
Experiment: Gram negative cocktail challenge test in inoculated standard liquid laundry detergent
Format: cell-based
Details: inhibitor 0.004% by weight in standard liquid laundry detergent; for Count (log viable cells): stored at 35° C.
Description: To determine if a compound is capable of at least inhibiting the growth of at least one Gram negative bacteria in the liquid detergent the following test is performed.
A mixture of Gram negative bacteria, also known as a Gram negative cocktail or cocktail, is prepared. The Gram negative cocktail comprises a mixture of Pseudomonas aeruginosa ATCC 9027, Pseudomonas fluorescens ATCC 13525, Burkholderia (Pseudomonas) cepacia ATCC 25416, Klebsiella oxytoca ATCC 13182, Escherichia coli ATCC 8739, Citrobacter freundii ATCC 8090 and Serratia liquefaciens ATCC 27592. The Gram negative bacterial cocktail is prepared by growing each organism individually on plates containing a growth medium and picking isolated colonies for preparation of the Gram negative cocktail. The growth medium is TSA (tryptic soy agar, available from Becton Dickinson). TSA contains per liter water: 15 g pancreatic digest of casein, 5 g enzymatic digest of soy bean meal, 5 g sodium chloride, and 15 g agar with the pH adjusted to 7.3±0.2 using hydrochloric acid, HCL (J. T. Baker).
The individually selected colonies are added to sterilized saline and adjusted to a McFarland standard of #2 (Available from bioMerieux, Inc.) to prepare a standardized saline suspension for the organism. This is repeated for each organism individually, thereby by preparing a standardized saline suspension for each organism. An equal volume (1 ml) of each standardized saline suspension of the following cocktail members are mixed together: Pseudomonas aeruginosa ATCC 9027, Pseudomonas fluorescens ATCC 13525, Burkholderia (Pseudomonas) cepacia ATCC 25416, Klebsiella oxytoca ATCC 13182, Escherichia coli ATCC 8739, Citrobacter freundii ATCC 8090 and Serratia liquefaciens ATCC 27592.
An inoculated liquid laundry detergent is prepared by the addition to 49.5 ml of the standard liquid laundry detergent, described in Table A below, of 0.5 ml of the Gram negative bacterial cocktail as prepared above. This standard liquid laundry detergent also contains from about 0.00001% to about 5%, by weight of the composition, of one or more of the tripeptide enzyme inhibitors described herein.
As the cocktail contains approximately 10^7 to 10^8 cfu/ml (colony forming units/ml); the resulting inoculum level in the inoculated liquid laundry detergent is 10^5 to 10^6 cfu/ml. The inoculated liquid laundry detergent is stored at 35° C., a relative humidity of about 60% and at standard pressure, i.e. 1 atmosphere. Samples of Iml are removed from the inoculated liquid laundry detergent at the following times, 1 day, 2 days, 7 days, 14 days, 21 days and 28 days. These 1 ml samples, are immediately neutralized by addition to a neutralizer, namely polyvalent universal neutralizer (PVUN) which contains (per liter distilled water): 30 g Polysorbate 80 (Available under the brand Tween 80, from VWR International), 5 g Sodium thiosulfate, Ig L-Histidine, Ig Peptone, 8.5 g Sodium chloride, 14.3 g Lecithin with the pH adjusted to 7.0±0.2 with HCL.
Each neutralized sample is then subjected to a serial dilution, to the 10^−5 dilution to allow full enumeration of the surviving microbial population. For example, 1 ml of sample is added to 9 ml of PVUN, resulting in a 1:10 dilution, or 10^−1 dilution. A 1 ml sample of this 1:10 dilution is then added to another 9 ml PVUN, resulting in a 1:100 dilution, or 10^−2 dilution, and so on. Serial dilutions are carried out to 10^−5. 1.0 ml of the various dilutions (10^−1 or 10^−5) are then either spread or pour plated on TSA (tryptic soy agar, Becton Dickinson) and are then incubated for 72 hours at 35° C.±2° C.
After incubation, the plates are counted and recorded as cfu/ml survival vs. time (days 1, 2, 7, 14, 21, and 28 days). Results are recorded as log viable cells on specified sampling days. […]

Which “Count (log viable cells)” value (Day 1, inoculum 10^5 to 10^6 cfu/ml) does the source give for COC(=O)N[C@H](C(=O)N[C@@H](C)C(=O)N[C@H](C=O)CC(C)C)C(C)C (Moc-Val-Ala-Leu-aldehyde) here?
The value was 4.7 log viable cells.

And the “Count (log viable cells)” value (Day 2)?
Its value is 4.0 log viable cells.

What about the “Count (log viable cells)” value (Day 7) of the same compound?
The value was less than 0.1 log viable cells.

And the “Count (log viable cells)” value (Day 14)?
Its value is less than 0.1 log viable cells.

And the “Count (log viable cells)” value (Day 21)?
The value was less than 0.1 log viable cells.

What about the “Count (log viable cells)” value (Day 28) of the same compound?
The value was less than 0.1 log viable cells.

What about the “Growth of Gram negative bacteria in liquid laundry detergents” value of the same compound?
The value was “prevents the growth of Gram negative bacteria”.
